Data reported in US20070213359A1 (ACADIA Pharmaceuticals Inc., priority 2005, published 2007).
Like-named read-outs stand apart in the source and are kept apart here.

Experiments:
GHSR1a receptor = target: T1, GHSR1a receptor (Homo sapiens, UniProt Q92847); test: 125I-Ghrelin binding assay
T1 construct: expressed in transfected cells; host or cells: HEK293 (membranes)
Description: Plasmid DNA containing the GHSR1a receptor (12.5 ug/dish) in 0.675 ml DMEM was transfected into the cells by mixing with 180 ul PolyFect, 15 min later mixing in 2.25 ml 10% CS/DMEM, and transferring the mixture into the dish. At 16-18 h post transfection, medium was replaced with 25 ml fresh 10% FCS/1% PSG/DMEM to each dish for another 18-20 h. At approximately 48 hours post-transfection, cells were harvested in ice-cold membrane buffer (20 mM HEPES, 6 mM MgCl2, 1 mM EDTA, pH to 7.2) using a cell scraper, and pelleted by centrifugation.
Pelleted cells were added to a nitrogen cavitation chamber and 900 bar of pressure applied for 30 min. The pressure was slowly released the cavitated cells collected in 50 ml falcon tubes. The tubes were centrifuged at 1000 rpm, 4° C. for 10 min, and the supernatant collected. This centrifugation and collection was repeated two more times until the supernatant was free of precipitate (membranes are still in suspension). The supernatant was poured into a 50 ml centrifuge tube and centrifuged at 10.000 rpm, 4° C. for 20 min. The supernatant was discarded and the pellet re-suspended in 750 μl membrane binding buffer using a chilled 1 ml syringe with 25G5/8 needle to re-suspend membranes. The protein concentration was determined using the BioRad Protein Assay Dye Reagent according to the manufacturers instructions. The protein concentration was adjusted to 5 mg/ml and aliquots snap-frozed and stored at −80 C until use.
Membranes were thawed rapidly; diluted with binding buffer (25 mM Hepes+5 mM MgCl2, 1 mM CaCl2, 2.5 mM EDTA and 0.2% BSA) to a protein concentration of 0.8 ug/30 ul and placed on ice. 96-well plates (U-bottom wells) were prepared with serial dilutions (8 doses, 40 ul/w) of the test compounds. Membranes (30 uL/well) were then added, and incubated with test ligands for 30 min at room temperature with shaking. […] Binding was terminated by filtration through GF/B filters (presoaked with 0.1% polyethylenimine) with a Brandel 96-well harvester. The filters were washed with ice-cold binding buffer (150 ml/plate) and allowed to air-dry for 30 min. 50 ul MicroScient-20 cocktail was added to each dried well, the plates were sealed, and counted for 2 min/well using a TopCount scintillation counter (Packard).

Ghrelin receptor = Ghrelin receptor (Homo sapiens, UniProt Q92847); test: Receptor Selection and Amplification Technology (R-SAT) assay; assay type: cell-based; design: expressed in transfected cells; host or cells: NIH3T3; conditions: for Emax: read-out: RSAT Eff(%)
Sequence of Ghrelin receptor (Q92847 whole entry): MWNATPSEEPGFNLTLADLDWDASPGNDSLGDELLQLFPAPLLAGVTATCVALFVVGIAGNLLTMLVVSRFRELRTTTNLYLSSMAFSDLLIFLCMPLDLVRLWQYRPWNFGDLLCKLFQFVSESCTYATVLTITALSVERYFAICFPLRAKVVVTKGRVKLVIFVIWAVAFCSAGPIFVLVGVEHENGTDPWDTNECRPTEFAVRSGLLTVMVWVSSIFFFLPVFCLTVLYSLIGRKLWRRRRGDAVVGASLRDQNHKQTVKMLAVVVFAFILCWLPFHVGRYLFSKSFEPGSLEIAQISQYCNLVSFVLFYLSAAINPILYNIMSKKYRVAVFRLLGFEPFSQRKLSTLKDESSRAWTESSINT

[1] = Binding pKi, displacement of 125I-ghrelin (0.053 nM), membranes of HEK293 cells transfected with GHSR1a, Cheng-Prussoff, '—' not defined
[2] = […], '—' not defined (nd used separately), read-out: RSAT pIC50 (converted)
[3] = displacement of 125I-ghrelin (0.053 nM), membranes of HEK293 cells transfected with GHSR1a, Cheng-Prussoff, '—' not defined, read-out: Binding pKi (converted)
[4] = negative logarithm of ligand concentration causing 50% inhibition of constitutive receptor response, transfected NIH3T3 cells, '—' not defined (nd used separately), read-out: RSAT pIC50 (converted)
[5] = percent inhibition at saturating ligand, normalized to reference ligand Substance P analog = 100%

T1 sequence (Q92847 whole entry): as above

COc1cccc2c(C(=O)NCc3cccc(C)c3)cn(CCCN3C4CCC3CC(Oc3ccc(Cl)cc3)C4)c12 (stereo not drawn)
Ki (GHSR1a receptor; [1]): 0.0501 µM
IC50 (Ghrelin receptor; [2]): 0.000631 µM
Emax (Ghrelin receptor): 92%

COc1cccc2c(C(=O)C3CC3)cn(CCCN3CCCN(Cc4ccccc4Cl)CC3)c12
Ki (GHSR1a receptor; [1]): 0.00794 µM
IC50 (Ghrelin receptor; [2]): 0.000794 µM
Emax (Ghrelin receptor): 99%

CCCCC1CCN(CCCn2cc(C(=O)NCc3cccc(Cl)c3)c3cccc(OC)c32)CC1
Ki (GHSR1a receptor; Binding pKi): 0.0501 µM
IC50 (Ghrelin receptor; RSAT pIC50): 0.00398 µM
Emax (Ghrelin receptor): 94%

CCCCC1CCN(CCCn2cc(C(=O)C3CC3)c3cccc(OC)c32)CC1
Ki (GHSR1a receptor; [1]): 0.398 µM
IC50 (Ghrelin receptor; [2]): 0.00398 µM
Emax (Ghrelin receptor): 95%

CCCCC1CCN(CCCn2cc(C(=O)c3ccccc3)c3cccc(OC)c32)CC1
Ki (GHSR1a receptor; [1]): 0.2 µM
IC50 (Ghrelin receptor; [2]): 0.00501 µM
Emax (Ghrelin receptor): 98%

CC(=O)c1cn(CCCN2CCC(c3nc4ccccc4s3)CC2)c2c(Cl)cccc12
Ki (GHSR1a receptor; [1]): 0.398 µM
IC50 (Ghrelin receptor; [2]): 0.00501 µM
Emax (Ghrelin receptor): 117%

COc1ccccc1C1CCN(CCCn2cc(C(=O)C3CC3)c3cccc(OC)c32)CC1
Ki (GHSR1a receptor; [1]): 0.158 µM
IC50 (Ghrelin receptor; [2]): 0.00501 µM
Emax (Ghrelin receptor): 102%

COc1cccc2c(C(=O)NCC(C)C)cn(CCCN3C4CCC3CC(CC(=O)c3ccccc3)C4)c12 (stereo not drawn)
Ki (GHSR1a receptor; [1]): 0.0501 µM
IC50 (Ghrelin receptor; [2]): 0.00794 µM
Emax (Ghrelin receptor): 145%

COc1cccc2c(C(=O)NCc3cccc(C)c3)cn(CCCN3CCC(Oc4ccc(Cl)cc4)CC3)c12
Ki (GHSR1a receptor; [1]): 0.126 µM
IC50 (Ghrelin receptor; [2]): 0.00794 µM
Emax (Ghrelin receptor): 115%

COc1cccc2c(C(=O)C3CC3)cn(CCCN3C4CCC3CC(CC(=O)c3ccc(Cl)cc3)C4)c12 (stereo not drawn)
Ki (GHSR1a receptor; [1]): 0.0398 µM
IC50 (Ghrelin receptor; [2]): 0.00794 µM
Emax (Ghrelin receptor): 70%

CC(=O)c1cn(CCCN2C3CCC2CC(CC(=O)c2ccccc2)C3)c2c(Br)cccc12 (stereo not drawn)
Ki (GHSR1a receptor; [1]): 0.1 µM
IC50 (Ghrelin receptor; [2]): 0.00794 µM
Emax (Ghrelin receptor): 111%

COc1cccc2c(C(=O)NCc3cccc(C)c3)cn(CCCN3C4CCC3CC(CC(=O)c3ccc(Cl)cc3)C4)c12 (stereo not drawn)
Ki (GHSR1a receptor; [1]): 0.0158 µM
IC50 (Ghrelin receptor; [2]): 0.01 µM
Emax (Ghrelin receptor): 110%

COc1cccc2c(C(=O)NCc3cccc(C)c3)cn(CCCN3CCC(Oc4ccccc4Cl)CC3)c12
Ki (GHSR1a receptor; [1]): 0.0794 µM
IC50 (Ghrelin receptor; [2]): 0.0126 µM
Emax (Ghrelin receptor): 96%

COc1cccc2c(C(=O)NCc3cccc(C)c3)cn(CCCN3CCCN(CCc4ccccc4)CC3)c12
Ki (GHSR1a receptor; [1]): 0.0158 µM
IC50 (Ghrelin receptor; [2]): 0.0126 µM
Emax (Ghrelin receptor): 110%

COc1cccc2c(C(=O)NCc3cccc(C)c3)cn(CCCN3CCCN(Cc4ccccc4Cl)CC3)c12
Ki (GHSR1a receptor; [1]): 0.0794 µM
IC50 (Ghrelin receptor; [2]): 0.0158 µM
Emax (Ghrelin receptor): 119%

COc1cccc2c(C(=O)NCc3cccc(C)c3)cn(CCCN3[C@@H]4CC[C@H]3CC(CC(=O)c3ccccc3)C4)c12 (stereo partly drawn)
Ki (GHSR1a receptor; [1]): 0.0631 µM

CC(=O)c1c(C)n(CCCN2C3CCC2CC(CCc2ccccc2)C3)c2c(Br)cccc12 (stereo not drawn)
Ki (GHSR1a receptor; [3]): 0.2 µM

O=C(c1cn(CCCN2C3CCC2CC(CCc2ccc(Cl)cc2)C3)c2ncccc12)C(F)(F)F (stereo not drawn)
Ki (GHSR1a receptor; [3]): 0.251 µM

CCc1cccc2c(C(C)=O)cn(CCCN3C4CCC3CC(CC(=O)c3ccc(Cl)cc3)C4)c12 (stereo not drawn)
Ki (GHSR1a receptor; [3]): 0.501 µM

CC(=O)c1c(C)n(CCCN2CCC(CCOc3ccc(Cl)cc3)CC2)c2c(Br)cccc12
Ki (GHSR1a receptor; [3]): 0.631 µM

CC(=O)c1c(C)n(CCCN2CCC(c3nc(-c4cccnc4)no3)CC2)c2c(Br)cccc12
Emax (Ghrelin receptor): 12%

CCc1cccc2c(C(C)=O)cn(CCCN3CCN(CCOc4ccc(Cl)cc4)CC3)c12
Emax (Ghrelin receptor): 24%

CCc1cccc2c(C(C)=O)cn(CCCN3CCC(c4nc(-c5cccnc5)no4)CC3)c12
Emax (Ghrelin receptor): 61%

COc1cccc2c(C(C)=O)cn(CC(C)CNCCOc3ccccc3)c12 (stereo not drawn)
Emax (Ghrelin receptor): 29%

COc1cccc2c(C(C)=O)cn(CC(C)CN3CCN(CCOc4ccccc4)CC3)c12 (stereo not drawn)
Emax (Ghrelin receptor): -7%

COc1cccc2c(C(C)=O)cn(CC(C)CN3CCCN(CCc4ccccc4)CC3)c12 (stereo not drawn)
Emax (Ghrelin receptor): 31%

COc1cccc2c(C(C)=O)cn(CC(C)CN3CCC(c4nc(-c5ccncc5)no4)CC3)c12 (stereo not drawn)
Emax (Ghrelin receptor): 78%

COc1cccc2c(C(C)=O)cn(CC(C)CN3CCC(c4nc(-c5cccnc5)no4)CC3)c12 (stereo not drawn)
Emax (Ghrelin receptor): 83%

COc1cccc2c(C(=O)Cc3ccccc3)cn(CCCN3CCN(CCOc4ccc(Cl)c5ccccc45)CC3)c12
Emax (Ghrelin receptor): 46%

CC(=O)c1cn(CCCN2CCN(CCOc3ccc(Cl)cc3)CC2)c2c(C#N)cccc12
Emax (Ghrelin receptor): 4%

CC(=O)c1cn(CCCNCCOc2ccccc2)c2c(C#N)cccc12
Emax (Ghrelin receptor): 11%

CC(=O)c1cn(CCCN2CCN(CCOc3ccc(Cl)c4ccccc34)CC2)c2c(C#N)cccc12
Emax (Ghrelin receptor): 53%

CC(=O)c1cn(CCCN2CCCC(Cc3ccccc3Cl)C2)c2c(C)cccc12 (stereo not drawn)
Emax (Ghrelin receptor): 38%

CC(=O)c1cn(CCCN2CCC(Cc3ccccc3Cl)C2)c2c(C)cccc12 (stereo not drawn)
Emax (Ghrelin receptor): 47%

CC(=O)c1cn(CCCN2C3CCC2CC(CC(=O)c2ccc(Cl)cc2)C3)c2c(C)cccc12 (stereo not drawn)
Emax (Ghrelin receptor): 19%

CC(=O)c1cn(CCCN2CCC3(CC2)CC(=O)c2ccccc2O3)c2c(Br)cccc12
Emax (Ghrelin receptor): 3%

CC(=O)c1cn(CCCN2CCCC(Cc3ccccc3Cl)C2)c2c(Br)cccc12 (stereo not drawn)
Emax (Ghrelin receptor): -18%

CC(=O)c1cn(CCCN2C3CCC2CC(CC(=O)c2ccc(Cl)cc2)C3)c2c(Br)cccc12 (stereo not drawn)
Emax (Ghrelin receptor): 33%

CC(=O)c1cn(CCCN2C3CCC2CC(Oc2ccccc2Cl)C3)c2c(Br)cccc12 (stereo not drawn)
Emax (Ghrelin receptor): 65%

COc1cccc2c(C(=O)C3CC3)cn(CCCN3CCCC(Cc4ccccc4Cl)C3)c12 (stereo not drawn)
Emax (Ghrelin receptor): 28%

CC(=O)c1cn(CCCN2CCC3(CC2)CC(=O)c2ccccc2O3)c2c(Cl)cccc12
Emax (Ghrelin receptor): 40%

CC(=O)c1cn(CCCN2CCCC(Oc3ccc(Cl)cc3)C2)c2c(Cl)cccc12 (stereo not drawn)
Emax (Ghrelin receptor): 7%

CC(=O)c1cn(CCCN2CCCC(Cc3ccccc3Cl)C2)c2c(Cl)cccc12 (stereo not drawn)
Emax (Ghrelin receptor): 47%

CC(=O)c1cn(CCCN2CCC(Cc3ccccc3Cl)C2)c2c(Cl)cccc12 (stereo not drawn)
Emax (Ghrelin receptor): 37%

CC(=O)c1cn(CCCN2C3CCC2CC(Oc2ccccc2Cl)C3)c2c(Cl)cccc12 (stereo not drawn)
Emax (Ghrelin receptor): 60%

COc1cccc2c(C(=O)c3ccccc3)cn(CCCN3CCCC(Oc4ccc(Cl)cc4)C3)c12 (stereo not drawn)
Emax (Ghrelin receptor): 48%

COc1cccc2c(C(=O)NCc3cccc(C)c3)cn(CCCN3CCCC(Oc4ccc(Cl)cc4)C3)c12 (stereo not drawn)
Emax (Ghrelin receptor): 14%

COc1cccc2c(C(=O)NCc3cccc(Cl)c3)cn(CCCN3CCCC(Oc4ccc(Cl)cc4)C3)c12 (stereo not drawn)
Emax (Ghrelin receptor): 31%

CC(=O)c1c(C)n(CCCNCCOc2ccccc2)c2c(Br)cccc12
Emax (Ghrelin receptor): 5%

CCc1cccc2c(C(C)=O)cn(CCCN3CCN(CCOc4ccc(Cl)c5ccccc45)CC3)c12
Emax (Ghrelin receptor): 29%

CC(=O)c1cn(CCCNC2Cc3ccccc3C2)c2c(C#N)cccc12
Emax (Ghrelin receptor): 6%

CC(=O)c1cn(CCCN2CCCC(Oc3ccc(Cl)cc3)C2)c2c(C)cccc12 (stereo not drawn)
Emax (Ghrelin receptor): -2%

COc1cccc2c(C(=O)NCC(C)C)cn(CCCN3CCCC(Oc4ccc(Cl)cc4)C3)c12 (stereo not drawn)
Emax (Ghrelin receptor): 9%

COc1cccc2c(C(C)=O)cn(CCCN3CCC(Oc4ccc(F)cc4)CC3)c12 [drawing 241]
IC50 (Ghrelin receptor; [4]): 0.00251 µM
RSAT Eff(%) (Ghrelin receptor; [5]): 104%

COc1cccc2c(C(C)=O)cn(CCCN3CCC(Oc4ccc(F)cc4)CC3)c12 [drawing 256]
IC50 (Ghrelin receptor; [2]): 0.00398 µM
Emax (Ghrelin receptor): 119%

CC(=O)c1cn(CCCN2CCC(c3nc4ccccc4s3)CC2)c2ccccc12 [drawing 462]
IC50 (Ghrelin receptor; [4]): 0.1 µM
Emax (Ghrelin receptor; [5]): 115%

CC(=O)c1cn(CCCN2CCC(c3nc4ccccc4s3)CC2)c2ccccc12 [drawing 466]
IC50 (Ghrelin receptor; [4]): 0.126 µM
RSAT Eff(%) (Ghrelin receptor; [5]): 99%

CC(=O)c1cn(CCCN2CCC(Oc3ccccc3Cl)CC2)c2ccccc12 [drawing 499]
Emax (Ghrelin receptor; [5]): 105%

CC(=O)c1cn(CCCN2CCC(Oc3ccc(F)cc3)CC2)c2ccccc12.O=C(O)C(=O)O [drawing 520]
IC50 (Ghrelin receptor; [4]): 0.251 µM
RSAT Eff(%) (Ghrelin receptor; [5]): 128%

COc1ccccc1C1CCN(CCCn2cc(C(C)=O)c3ccccc32)CC1 [drawing 533]
IC50 (Ghrelin receptor; [4]): 0.316 µM
Emax (Ghrelin receptor; [5]): 109%

O=C(NCc1cccc(Cl)c1)c1cn(CCCN2CCC(Oc3ccc(F)cc3)CC2)c2ccccc12.O=C(O)C(=O)O [drawing 596]
RSAT Eff(%) (Ghrelin receptor): 142%

COc1cccc2c(C(=O)NCC(C)C)cn(CCCN3CCC(c4nc5ccccc5s4)CC3)c12 [drawing 706]
Ki (GHSR1a receptor; [1]): 0.501 µM

CCCOC1CCN(CCCn2cc(C(C)=O)c3cccc(OC)c32)CC1 [drawing 713]
Ki (GHSR1a receptor; [3]): 1.26 µM
